Assay in all cases: NCI tumour cell line growth inhibition, 48 h
For assay [1], the system named is HCC-2998 colon.
In assay [2] the test system is A498 renal.
Assay [3] concerns M19-MEL melanoma.
Assay [4] has as its system DMS 273 small cell lung.
Assay [5] has as its system DMS 114 small cell lung.
For assay [6], the system named is XF 498 CNS.
Assay [7] relates to KM20L2 colon.
The test system of assay [8] is LXFL 529 NSCLC.
In assay [9] the test system is DLD-1 colon.
Assay [10] deals with HOP-18 NSCLC.
The test system of assay [11] is SNB-78 CNS.

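How tested: cells in 96-well plates exposed to compound for 48 hours at five concentrations. The concentration for full growth arrest is given as TGI.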 Where a SMILES comes first, the peptide text is derived from it. The star is where a group is joined. Cbz = O=C(OCc1ccccc1)*; Boc = CC(C)(C)OC(=O)*; Bn = c1ccc(C*)cc1 Some results are limits rather than exact numbers.

In assay [1], `COc1ccc(C(=O)/C=C/c2ccc(OCCSCCCCCCCCCCSCCOc3ccc(/C=C/C(=O)c4ccc(OC)cc4)cc3)cc2)cc1` came in with a TGI of over 100 µM.
Turning to `Cc1cccc2c(=O)c3c(O)cc(O)cc3[nH]c12`, the TGI in [1] and in assay [2] was over 10 µM each time.
For `CC(O)(/C=C/c1ccccc1)P(=O)(O)c1ccccc1` (centres undefined), the TGI in assay [1] and in assay [2] was over 100 µM in each case.
Take `CC(=O)CCC(=O)C(=[N+]=[N-])S(=O)(=O)c1ccccc1`: in assay [1], the TGI is over 100 µM.
Regarding `CCOP(=O)(OCC)C(Nc1cccc([N+](=O)[O-])c1)c1ccccc1` (centres undefined), the TGI in assay [1] and in [2] was over 100 µM in each case.
For the molecule `c1cc(CSP234N5CCN2CCN3CCN4CC5)ccc1CSP123N4CCN1CCN2CCN3CC4`, the TGI in [1] is over 100 µM.
With `O=C1NCCCC12CCCNC2=O`, the TGI in assay [3], in assay [4], in assay [5], in assay [1], in assay [6] and in assay [7] was over 100 µM throughout. In addition, in assay [8], the TGI was over 100 µM.
For `C#CCOCn1ccc(=O)[nH]c1=O`, the TGI in assay [1] and in assay [2] was over 100 µM in each case.
`c1ccc(-c2cs[s+]c2)cc1`: the TGI in [1] and in assay [2] was over 100 µM throughout.
Regarding `CC(=O)OC1COC(n2nc(/C=C/c3ccc(Cl)cc3)c(=O)n(/N=C/c3ccccc3)c2=S)C(OC(C)=O)C1OC(C)=O` (centres undefined), the TGI in [1] and in [2] was over 100 µM throughout.
As for `C=CCOc1ccc(/C(N=Nc2ccccc2)=N/NC(=O)c2ccccc2)cc1OC`, the TGI in assay [1] and in assay [2] was over 100 µM each time.
Regarding `COc1cc(/C=C/C(=O)OC2C(O)C3CC(OC(=O)c4cc(OC)c(OC)c(OC)c4)CC2N3C)cc(OC)c1OC` (centres undefined), the TGI in assay [1] was over 50 µM; in assay [2] it was 17.7 µM.
Turning to `C(=C\c1nccs1)/c1cccc(/C=C/c2nccs2)n1`, the TGI in [1] and in assay [2] was over 50 µM each time.
For `CC(C)C1OC2(C)OC(=N)C1(C#N)C(C#N)(C#N)C2C` (centres undefined), the TGI in assay [1] is 30.7 µM; in assay [2], over 100 µM.
With `O=C(N/N=C/c1ccc([N+](=O)[O-])cc1)c1cccc2nc3ccccc3nc12`, the TGI in [2] is over 100 µM.
Regarding `CN1CCN(c2cc3c(cc2F)c(=O)c(C(=O)O)cn3C2CC2)CC1CC#N` (centres undefined), the TGI in assay [1] and in assay [2] was over 100 µM each time.
`CC(C)(C)OC(=O)NC(Cc1ccc(OCc2ccccc2)cc1)C(=O)NC(CCCCNC(=O)OCc1ccccc1)C(=O)O` (centres undefined) (Boc-Tyr(Bn)-Lys(Cbz)-OH; configuration not given here): the TGI in assay [1] is over 100 µM.
`Cc1ccccc1NC(=O)C(=O)CC(=O)c1sc(Nc2ccccc2[N+](=O)[O-])nc1C`: the TGI in [1] was 59.3 µM.
As to `CC(C)(C)[Si](C)(C)OCC1OC(n2ccc(=O)[nH]c2=O)C(O[Si](C)(C)C(C)(C)C)[C@@]12O[C@H]2C(N)=O` (some centres undefined), in assay [1], the TGI is over 100 µM.
Consider `CC(=O)O[C@@H]1[C@H]2[C@@H](OC(=O)c3ccccc3)[C@@H](C)C[C@]2(O)[C@H](OC(C)=O)[C@@]2(C)[C@@H]3CC(C)(C)C(=O)[C@]3(OC(C)=O)C[C@@]12C`, for which the TGI in assay [1] and in assay [2] was over 25 µM each time.
`Cc1cc(C)nc(NC(=S)Nc2ccccc2Cl)c1` yielded a TGI in [2] of over 100 µM.
Take `COC(=O)C1CC=C(SC(=O)c2ccccc2)N1C(=O)c1ccccc1` (centres undefined): the TGI in assay [1] and in assay [2] was over 100 µM in each case.
Regarding `CN(C(=O)c1ccc(Cl)cc1)C(=S)N1CCN(c2ccccn2)CC1`, the TGI in assay [3], in [9], in assay [10], in assay [4], in [5] and in [7] was over 100 µM throughout. In addition, the TGI in assay [11] and in [8] was over 100 µM throughout.
In the case of `Cc1nc2ccc(F)cc2c2c1CCO2`, the TGI in assay [1] and in [2] was over 100 µM each time.
As for `O=C1CCCCC1=C(I)I`, the TGI in assay [1] amounted to 29.5 µM; in [2], 35.5 µM.
Take `CCO[C@@H]1CCC(S(=O)c2ccc(C)cc2)=CO1` (some centres undefined): the TGI in assay [1] and in assay [2] was over 100 µM in each case.
With `OCC1OC(NCCNCCNC2OC(CO)C(O)C(O)C2O)C(O)C(O)C1O` (centres undefined), the TGI in assay [1] and in assay [2] was over 100 µM in each case.
With `CSc1nc(-c2ccc(C)cc2)c(C#N)c(=O)[nH]1`, the TGI in [1] and in assay [2] was over 100 µM each time.
The molecule `Cc1nn(C(=O)c2ccncc2)c2c1C(c1ccc(Cl)cc1)SC(N)=N2` (centres undefined) returned a TGI in [1] of over 10 µM.
Take `O=C(c1ccco1)n1c2ccc(Br)cc2c2nc3ccccc3nc21`: in assay [1], the TGI is over 100 µM.
For the molecule `CCCCn1cnnc1NS(=O)(=O)c1cc(C)c(Cl)cc1SCC(=O)O`, the TGI in assay [1] and in assay [2] was over 10 µM throughout.
Regarding `COc1cc(NCc2ccc3nc(-c4ccccc4)c(N)nc3c2)cc(OC)c1OC`, the TGI in [1] was over 100 µM; in assay [2], 75.3 µM.
For the molecule `COP(=O)(OC)C(=NCc1ccccc1)NNc1ccc([N+](=O)[O-])cc1`, the TGI was over 100 µM in assay [3]; over 100 µM in assay [9]; over 100 µM in assay [4]; 76 µM in [5]; over 100 µM in assay [1]; over 100 µM in assay [7]. This molecule registered a TGI in assay [8] of over 100 µM.
Turning to `C/C(=N\NC(=S)NC1CCCC1)c1ccccn1`, the TGI was over 100 µM in assay [1] and over 28 µM in assay [2].

These data come from PubChem BioAssay (NCI).
